From ChEMBL document CHEMBL1146849, “Identification of a lead pharmacophore for the development of potent nuclear receptor modulators as anticancer and X syndrome disease therapeutic agents” (Bioorg Med Chem Lett, 2006)
Active and inactive are the calls of the source. The rule behind the calls is not given here.

Experiments:
[1] = test system: Androgen receptor (Homo sapiens), P10275 [T878A]; assay: Agonist activity at human androgen receptor T877A mutant relative to control; type: functional
[2] = target: T1, Bile acid receptor (Homo sapiens) (UniProt Q96RI1); assay: Agonist activity at FXR in HepG2 cells by luciferase activity relative to CDCA at 10 uM; type: functional, cell-based
T1 sequence (whole entry): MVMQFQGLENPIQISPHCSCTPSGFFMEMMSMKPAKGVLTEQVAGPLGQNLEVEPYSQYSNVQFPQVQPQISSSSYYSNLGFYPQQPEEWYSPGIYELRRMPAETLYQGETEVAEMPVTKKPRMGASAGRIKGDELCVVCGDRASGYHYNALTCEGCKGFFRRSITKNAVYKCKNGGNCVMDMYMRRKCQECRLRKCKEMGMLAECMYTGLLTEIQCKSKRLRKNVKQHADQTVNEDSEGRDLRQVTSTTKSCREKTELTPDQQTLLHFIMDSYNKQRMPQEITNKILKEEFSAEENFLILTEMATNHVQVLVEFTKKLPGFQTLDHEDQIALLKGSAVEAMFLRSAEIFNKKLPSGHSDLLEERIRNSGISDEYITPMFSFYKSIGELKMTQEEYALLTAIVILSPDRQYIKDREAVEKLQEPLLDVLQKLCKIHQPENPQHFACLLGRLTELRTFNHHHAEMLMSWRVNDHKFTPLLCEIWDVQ

Chain of Androgen receptor (Homo sapiens), P10275 [T878A] (P10275 whole entry T878A): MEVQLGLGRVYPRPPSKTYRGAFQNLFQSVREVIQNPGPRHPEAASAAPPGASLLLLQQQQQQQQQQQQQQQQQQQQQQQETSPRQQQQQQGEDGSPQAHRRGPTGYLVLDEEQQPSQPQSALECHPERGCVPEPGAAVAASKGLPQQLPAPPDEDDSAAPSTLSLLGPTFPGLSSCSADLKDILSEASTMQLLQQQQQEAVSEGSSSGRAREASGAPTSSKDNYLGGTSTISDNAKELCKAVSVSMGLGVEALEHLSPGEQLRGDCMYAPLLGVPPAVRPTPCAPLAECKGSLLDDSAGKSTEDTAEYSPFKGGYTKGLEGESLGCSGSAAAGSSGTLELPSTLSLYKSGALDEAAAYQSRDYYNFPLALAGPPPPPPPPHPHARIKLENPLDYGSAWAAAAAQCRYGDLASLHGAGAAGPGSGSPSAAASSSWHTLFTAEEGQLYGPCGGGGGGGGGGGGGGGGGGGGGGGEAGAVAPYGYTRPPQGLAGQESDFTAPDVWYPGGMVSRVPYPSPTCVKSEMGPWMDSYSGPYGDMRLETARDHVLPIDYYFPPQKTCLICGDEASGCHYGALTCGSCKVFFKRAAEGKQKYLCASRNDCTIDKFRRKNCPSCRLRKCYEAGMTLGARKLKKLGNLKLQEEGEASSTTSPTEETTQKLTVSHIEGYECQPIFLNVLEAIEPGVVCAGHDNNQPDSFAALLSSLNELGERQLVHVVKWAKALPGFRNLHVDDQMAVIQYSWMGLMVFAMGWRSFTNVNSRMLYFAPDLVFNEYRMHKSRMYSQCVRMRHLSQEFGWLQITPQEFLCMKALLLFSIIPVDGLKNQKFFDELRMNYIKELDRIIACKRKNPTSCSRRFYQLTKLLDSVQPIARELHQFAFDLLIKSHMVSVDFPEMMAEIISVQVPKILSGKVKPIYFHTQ

`Cc1cc(C)cc(C(=O)N2Cc3ccccc3C[C@H]2CO)c1` was tested, and the Activity [1] was “inactive”.
`O=C(c1ccc(C(O)(C(F)(F)F)C(F)(F)F)cc1)N1Cc2ccccc2C[C@H]1CO` was tested, and the Activity [1] was “inactive”.
With `Cc1ccc(C(=O)N2Cc3ccccc3C[C@H]2CO)cc1F` the Activity [2] was “Active”.
